This passage reports IC50 results from BindingDB's records for patent US20240400545 (Hangzhou Innogate Pharma, 2024).

Each structure is given as a SMILES string.

The target of this test is T1, Histone acetyltransferase KAT6A [507-778] (Homo sapiens, UniProt Q92794).
T1 construct: 507-778
T1 sequence (Q92794 507-778): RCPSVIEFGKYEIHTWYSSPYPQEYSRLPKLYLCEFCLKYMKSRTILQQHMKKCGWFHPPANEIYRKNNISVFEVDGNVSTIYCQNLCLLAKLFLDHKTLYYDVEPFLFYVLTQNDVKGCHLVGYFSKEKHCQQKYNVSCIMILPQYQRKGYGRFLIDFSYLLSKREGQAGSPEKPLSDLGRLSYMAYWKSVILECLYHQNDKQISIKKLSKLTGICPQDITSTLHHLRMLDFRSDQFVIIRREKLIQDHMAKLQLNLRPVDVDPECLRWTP
As to the kind of experiment: Inhibition of KAT6A Enzyme Activity Assay. The method, then: 1× experimental buffer (modified Tris buffer) was prepared, and the compounds were dissolved with 100% DMSO to form 10 mM reservoir solution and diluted according to a certain concentration gradient. The compounds were transferred to a 384-well plate using an automatic sampler Echo, and the final concentration of DMSO was 1%. 1× KAT6A enzyme (catalytic domain) solution was prepared. A mixed solution of [3H]-acetyl-CoA (PERKIN ELMER, Cat. No. NET290250UC) and the substrate peptide H3 (1-21) was prepared. 10 μL of the enzyme solution was transferred to the 384-well plate and incubated at room temperature for 15 minutes. 10 μL of the mixed solution of [3H]-acetyl-CoA and the substrate peptide H3 (1-21) were added to the plate to initiate the reaction. The plate was incubated at room temperature for 1 hour. 10 μL of the stop solution was added to terminate the reaction. 25 μL of the reaction solution was transferred to a Flashplate (Perkin Elmer, Cat. No. SMP410A001PK) and incubated at room temperature for 1 hour. The plate was read using Microbeta. The inhibition rate of the compounds was calculated using the formula of Excel: inhibition %=(Max-Signal)/(Max−Min)*100%. Where max is the value of the DMSO control, min is the value of the non-enzymatic control, and signal is the value of the well where the compound was tested.
In the case of `COc1ccc(N2CCOCC2)cc1S(=O)(=O)Nc1noc2cc(Cn3cccn3)cc(OC)c12` [US20240400545, Compound 6], the IC50 – broadly, the midpoint of a concentration-inhibition curve – was under 100 nM. With `CC#Cc1ccc(OC)c(S(=O)(=O)Nc2noc3cc(Cn4cccn4)cc(OC)c23)c1` [US20240400545, Compound 13] the figure was under 20 nM. The same measure for `COc1ccc(C#CC2CC2)cc1S(=O)(=O)Nc1noc2cc(Cn3cccn3)cc(OC)c12` [US20240400545, Compound 7]: under 10 nM; for `C#Cc1ccc(OC)c(S(=O)(=O)Nc2noc3cc(Cn4cccn4)cc(OC)c23)c1` [US20240400545, Compound 3]: under 20 nM. In turn, `CC#Cc1cc(OC)c(S(=O)(=O)Nc2noc3cc(Cn4cccn4)cc(OC)c23)c(OC)c1` [US20240400545, Compound 9] displayed an IC50 of under 10 nM.

The compound `COc1ccc(N2CCN(C)CC2)cc1S(=O)(=O)Nc1noc2cc(Cn3cccn3)cc(OC)c12` [US20240400545, Compound 5] showed an IC50 of under 200 nM.

The compound `COc1cc(C#CC2CNC2)cc(OC)c1S(=O)(=O)Nc1noc2cc(Cn3cccn3)cc(OC)c12` [US20240400545, Compound 21] showed an IC50 of under 10 nM. With `C#Cc1ccc(S(=O)(=O)Nc2noc3cc(Cn4cccn4)cc(OC)c23)c(OC)c1` [US20240400545, Compound 11] the figure was under 10 nM.

`COc1cc(C#CC2CN(C)C2)cc(OC)c1S(=O)(=O)Nc1noc2cc(Cn3cccn3)cc(OC)c12` [US20240400545, Compound 22] showed an IC50 of under 20 nM. With `COc1cc(C#CC2CN(C(=O)OC(C)(C)C)C2)cc(OC)c1S(=O)(=O)Nc1noc2cc(Cn3cccn3)cc(OC)c12` [US20240400545, Compound 20], the IC50 was under 5 nM. With `COc1cc(C#CC2CN(C)C2)ccc1S(=O)(=O)Nc1noc2cc(Cn3cccn3)cc(OC)c12` [US20240400545, Compound 24] the figure was under 20 nM; with `CC#Cc1cccc(OC)c1S(=O)(=O)Nc1noc2cc(Cn3cccn3)cc(OC)c12` [US20240400545, Compound 23], under 20 nM; with `COc1ccc(C#CC2CC2)cc1S(=O)(=O)NC(=O)c1cc2ccc(N(C)C)cc2o1` [US20240400545, Compound 8], under 1000 nM. The same measure for `COc1cc(C#CC2CC2)cc(OC)c1S(=O)(=O)Nc1noc2cc(Cn3cccn3)cc(OC)c12` [US20240400545, Compound 10]: under 5 nM; for `CC#Cc1ccc(S(=O)(=O)Nc2noc3cc(Cn4cccn4)cc(OC)c23)c(OC)c1` [US20240400545, Compound 16]: under 10 nM; for `COc1cc(C#Cc2cccnc2)cc(OC)c1S(=O)(=O)Nc1noc2cc(Cn3cccn3)cc(OC)c12` [US20240400545, Compound 19]: under 5 nM. With `COc1cc(C#CC2CC2)ccc1S(=O)(=O)Nc1noc2cc(Cn3cccn3)cc(OC)c12` [US20240400545, Compound 12] the figure was under 10 nM; with `COc1cc(C#CC2CC(F)(F)C2)cc(OC)c1S(=O)(=O)Nc1noc2cc(Cn3cccn3)cc(OC)c12` [US20240400545, Compound 15], under 5 nM; with `COc1cc(C#Cc2cccnc2)cc(O)c1S(=O)(=O)Nc1noc2cc(Cn3cccn3)cc(OC)c12` [US20240400545, Compound 19'], under 10 nM.
